Experimental findings from patent US9296694B2, “Azacyclic compounds” (ACADIA Pharmaceuticals Inc., priority 2000, dated 2016) are described below.

Where a name gives a salt, the structure may show the parent alone.

Holding throughout (experiment): R-SAT selectivity profile of 26HCH16D
The target of one assay is T1, 5HT1A (Rattus norvegicus, UniProt P19327).
T1 construct: expressed in transfected cells; host or cells: NIH3T3, pSI vector
T1 sequence (P19327 1-422): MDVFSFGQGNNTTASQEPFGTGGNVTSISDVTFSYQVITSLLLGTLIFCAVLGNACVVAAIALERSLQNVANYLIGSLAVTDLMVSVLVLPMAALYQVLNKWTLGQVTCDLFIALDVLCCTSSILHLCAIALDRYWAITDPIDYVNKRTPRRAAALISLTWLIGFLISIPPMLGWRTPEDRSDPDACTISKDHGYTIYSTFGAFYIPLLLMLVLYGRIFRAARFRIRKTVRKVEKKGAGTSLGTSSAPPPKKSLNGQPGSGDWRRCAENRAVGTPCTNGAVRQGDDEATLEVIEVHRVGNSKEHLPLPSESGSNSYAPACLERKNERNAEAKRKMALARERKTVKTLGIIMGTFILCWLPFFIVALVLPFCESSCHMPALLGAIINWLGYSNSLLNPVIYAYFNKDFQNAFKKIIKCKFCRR
The class given is cell-based. Conditions: Antagonist; 4 doses in duplicate (3, 30, 300, 3000 nM). On the procedure: (§1) The functional receptor assay, Receptor Selection and Amplification Technology (R-SAT), was used (with minor modifications from that previously described U.S. Pat. No. 5,707,798) to screen compounds for efficacy at the 5-HT2A receptor. Briefly, NIH3T3 cells were grown in 96 well tissue culture plates to 70-80% confluence. Cells were transfected for 12-16 hours with plasmid DNAs using superfect (Qiagen Inc.) as per manufacture's protocols. R-SAT's were generally performed with 50 ng/well of receptor and 20 ng/well of Beta-galactosidase plasmid DNA. All receptor and G-protein constructs used were in the pSI mammalian expression vector (Promega Inc) as described in U.S. Pat. No. 5,707,798. The 5HT2A receptor gene was amplified by nested PCR from brain cDNA using the oligodeoxynucleotides based on the published sequence (see Saltzman et. al. Biochem. Biophys. Res. Comm. 181:1469-78 (1991)). Large-scale transfections, cells were transfected for 12-16 hours, then trypsinized and frozen in DMSO. Frozen cells were later thawed, plated at 10,000-40,000 cells per well of a 96 well plate that contained drug. With both methods, cells were then grown in a humidified atmosphere with 5% ambient CO2 for five days. Media was then removed from the plates and marker gene activity was measured by the addition of the beta-galactosidase substrate ONPG (in PBS with 5% NP-40). The resulting colorimetric reaction was measured in a spectrophotometric plate reader (Titertek Inc.) at […]. All data were analyzed using the computer program XLFit (IDBSm). Efficacy is the percent maximal repression compared to repression by a control compound (ritanserin in the case of 5HT2A). pIC50 is the negative of the log(IC50), where IC50 is the calculated concentration in Molar that produces 50% maximal repression.
(§2) R-SAT assays (as described in Example 42) were carried out with cells transfected with receptors (listed below) to determine the receptor selectivity profile for compound 26HCH16D. 5HT2A inverse agonist data (IC50 nM; % efficacy) were derived from detailed dose response curves (7 points in triplicate).

The next assay addresses T2, D2 (Homo sapiens, UniProt P14416).
T2 construct: expressed in transfected cells; host or cells: NIH3T3, pSI vector
The class given is cell-based. On the procedure: as §1, §2

A further assay addresses T3, 5HT2B (Homo sapiens, UniProt P41595).
T3 construct: expressed in transfected cells; host or cells: NIH3T3, pSI vector
The format is cell-based. To be noted: Antagonist; 4 dose profiling. The protocol:
as §1, §2

The next assay deals with T4, 5HT1E (Homo sapiens, UniProt P28566).
T4 construct: expressed in transfected cells; host or cells: NIH3T3, pSI vector
T4 sequence (P28566 whole entry): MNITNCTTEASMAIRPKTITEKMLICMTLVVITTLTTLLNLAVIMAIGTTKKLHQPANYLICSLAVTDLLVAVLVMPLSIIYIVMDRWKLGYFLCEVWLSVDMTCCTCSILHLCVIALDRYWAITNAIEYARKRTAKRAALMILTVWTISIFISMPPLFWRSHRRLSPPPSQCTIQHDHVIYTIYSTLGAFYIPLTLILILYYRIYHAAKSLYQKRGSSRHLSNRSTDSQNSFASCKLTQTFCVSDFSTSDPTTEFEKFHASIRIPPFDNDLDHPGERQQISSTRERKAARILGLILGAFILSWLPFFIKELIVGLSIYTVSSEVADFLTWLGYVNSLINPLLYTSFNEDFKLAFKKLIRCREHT
The format is cell-based. Conditions: Agonist; 4 doses in duplicate (3, 30, 300, 3000 nM). The protocol:
as §1, §2

The target in the next assay is T5, alpha1b/B (Mesocricetus auratus, UniProt P18841).
T5 construct: expressed in transfected cells; host or cells: NIH3T3, pSI vector
T5 sequence (P18841 1-515): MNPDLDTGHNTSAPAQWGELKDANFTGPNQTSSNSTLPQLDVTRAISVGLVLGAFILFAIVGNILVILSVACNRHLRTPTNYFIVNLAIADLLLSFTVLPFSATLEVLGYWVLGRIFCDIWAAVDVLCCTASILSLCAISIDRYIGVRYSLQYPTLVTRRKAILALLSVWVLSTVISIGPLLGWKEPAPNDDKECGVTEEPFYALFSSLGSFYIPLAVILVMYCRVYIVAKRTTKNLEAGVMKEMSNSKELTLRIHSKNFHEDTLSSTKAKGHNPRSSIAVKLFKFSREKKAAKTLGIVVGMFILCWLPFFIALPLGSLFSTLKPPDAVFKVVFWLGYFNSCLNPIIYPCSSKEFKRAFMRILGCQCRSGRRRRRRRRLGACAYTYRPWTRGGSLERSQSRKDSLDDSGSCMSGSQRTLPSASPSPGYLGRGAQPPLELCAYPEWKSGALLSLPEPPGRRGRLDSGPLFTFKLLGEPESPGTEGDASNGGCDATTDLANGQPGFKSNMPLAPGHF
The class given is cell-based, hamster. To be noted: 4 doses in duplicate (3, 30, 300, 3000 nM). The protocol:
as §1, with “Frozen cells were later thawed, plated at 10,000-40,000 cells per well of a 96 well plate that contained drug. With both methods, cells were then grown in a humidified atmosphere with 5% ambient CO2 for five days.” left out, “Efficacy is the percent maximal repression compared to repression by a control compound (ritanserin in the case of 5HT2A). pIC50 is the negative of the log(IC50), where IC50 is the calculated concentration in Molar that produces 50% maximal repression.” left out

T2 sequence (P14416 whole entry): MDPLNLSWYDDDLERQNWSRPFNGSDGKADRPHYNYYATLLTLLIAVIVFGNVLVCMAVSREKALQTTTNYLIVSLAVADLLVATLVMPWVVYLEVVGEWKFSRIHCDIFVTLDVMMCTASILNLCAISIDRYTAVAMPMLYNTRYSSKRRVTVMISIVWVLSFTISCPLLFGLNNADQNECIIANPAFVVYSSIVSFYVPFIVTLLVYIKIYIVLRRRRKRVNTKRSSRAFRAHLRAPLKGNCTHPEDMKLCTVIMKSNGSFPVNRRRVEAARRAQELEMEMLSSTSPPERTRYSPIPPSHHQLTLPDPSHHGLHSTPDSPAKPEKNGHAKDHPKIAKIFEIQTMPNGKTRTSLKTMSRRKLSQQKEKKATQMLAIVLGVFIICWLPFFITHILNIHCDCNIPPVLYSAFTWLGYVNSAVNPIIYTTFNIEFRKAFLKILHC
T3 sequence (P41595 whole entry): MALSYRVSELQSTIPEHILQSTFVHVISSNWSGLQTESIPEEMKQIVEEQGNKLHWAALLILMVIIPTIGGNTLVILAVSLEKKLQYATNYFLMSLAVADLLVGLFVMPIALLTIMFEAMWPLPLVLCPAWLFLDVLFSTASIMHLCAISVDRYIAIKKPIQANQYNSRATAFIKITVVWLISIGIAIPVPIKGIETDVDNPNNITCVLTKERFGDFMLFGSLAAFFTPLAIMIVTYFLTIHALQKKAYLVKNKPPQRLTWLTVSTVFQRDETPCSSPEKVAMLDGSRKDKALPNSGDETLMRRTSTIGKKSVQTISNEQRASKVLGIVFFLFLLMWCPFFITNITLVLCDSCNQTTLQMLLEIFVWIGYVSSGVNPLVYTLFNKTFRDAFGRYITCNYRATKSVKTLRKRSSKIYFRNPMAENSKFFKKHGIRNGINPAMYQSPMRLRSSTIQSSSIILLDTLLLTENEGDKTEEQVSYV

For `Cc1ccc(CN(C(=O)NCc2ccccc2)C2CCN(Cc3ccccc3)CC2)cc1` [Compound 26HCH16D, N-((4-Methylphenyl)methyl)-N-(1-(phenylmethyl)piperidin-4-yl)-N′-phenylmethylcarbamide hydrochloride], the Efficacy result on 5HT1A is “nr (nr=activity less than 30% at all doses tested (3, 30, 300, 3000 nM), therefore EC50/IC50 greater than 3000 nM))”; on D2 (Agonist, 4 doses in duplicate (3, 30, 300, 3000 nM)) it was “nr (nr=activity less than 30% at all doses tested (3, 30, 300, 3000 nM), therefore EC50/IC50 greater than 3000 nM))”; at 5HT1E it was “nr (nr=activity less than 30% at all doses tested (3, 30, 300, 3000 nM), therefore EC50/IC50 greater than 3000 nM))”; on alpha1b/B (Agonist), “nr (nr=activity less than 30% at all doses tested (3, 30, 300, 3000 nM), therefore EC50/IC50 greater than 3000 nM))”; on alpha1b/B (Antagonist), “nr (nr=activity less than 30% at all doses tested (3, 30, 300, 3000 nM), therefore EC50/IC50 greater than 3000 nM))”. Further, the “initial concentration at which at least 30% efficacy observed” value at D2 (Antagonist, 4 dose profiling) worked out at 3000 nM; on 5HT2B it was 3000 nM.
